Test systems include NCI-H522; SNB-75; OVCAR-4; MOLT-4; HOP-92; CAKI-1; SK-OV-3; NCI-H460; HCT-15; TK-10; OVCAR-3; HCC 2998; DMS-273; OVCAR-8; HCT-116; RXF 393.
Holding throughout (assay): growth of human tumour cells (NCI), 48 h

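These data come from cells grown in 96-well plates and exposed to compound for 48 hours at five concentrations. GI50 marks 50% less growth.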 Active and inactive are the calls of the source. Cut-off read from the data, not from the text of the source: active = GI50 up to about 1.1 µM and inactive = higher.

`COc1cc2c3c(c1OC)C(=O)C=C3N(S(=O)(=O)c1ccc(C)cc1)CC2`: the GI50 was 10.4 µM (inactive) in the test with NCI-H522; 46.9 µM (inactive) with SNB-75; 65.8 µM (inactive) in the test on OVCAR-4; > 100 µM (inactive) with MOLT-4; > 100 µM (inactive) in the test with HOP-92; 52.6 µM (inactive) in the test on CAKI-1. Besides, the GI50 in the test with SK-OV-3 is > 100 µM (inactive); in the test on NCI-H460, > 100 µM (inactive); with HCT-15, above 100 µM; in the test with TK-10, > 100 µM (inactive); in the test on OVCAR-3, > 100 µM (inactive); with HCC 2998, > 100 µM (inactive). For the same compound, the GI50 with DMS-273, with OVCAR-8 and in the test with HCT-116 was > 100 µM (inactive) in each case.
For the compound `C#CCSc1nc(N)c2ncn(C3OC(COP(=O)(O)O)C(O)C3O)c2n1` (configuration not stated), the GI50 with NCI-H522, with SNB-75, with OVCAR-4, in the test on MOLT-4, in the test on HOP-92 and in the test on CAKI-1 was > 239 µM (inactive) each time. Besides, the GI50 was > 239 µM (inactive) in the test with SK-OV-3; > 239 µM (inactive) in the test with NCI-H460; above 239 µM in the test on HCT-15; > 239 µM (inactive) with TK-10; > 239 µM (inactive) with OVCAR-3; > 239 µM (inactive) in the test with HCC 2998. Besides, the GI50 in the test on DMS-273, in the test with OVCAR-8 and with HCT-116 was > 239 µM (inactive) in each case.
For `O=C(O)/C=C/n1c2ccccc2c(=O)c2ccccc21`, the GI50 with NCI-H522, with OVCAR-4, in the test on RXF 393, with MOLT-4, in the test with CAKI-1 and with NCI-H460 was > 100 µM (inactive) each time. In addition, the GI50 in the test with HCT-15 is above 100 µM; in the test with OVCAR-3 it was > 100 µM (inactive); with HCC 2998 it was > 100 µM (inactive); in the test with DMS-273, > 100 µM (inactive); with OVCAR-8 it was > 100 µM (inactive); with HCT-116 it was > 100 µM (inactive).
Take `Nc1ccc(C2=Nc3ccccc3SC(c3ccccc3O)C2)cc1` (configuration not stated): the GI50 is 21.3 µM (inactive) in the test on NCI-H522; 24.7 µM (inactive) in the test with SNB-75; 51.6 µM (inactive) in the test on OVCAR-4; 24.9 µM (inactive) in the test on RXF 393; 19.8 µM (inactive) in the test with MOLT-4; 58.9 µM (inactive) in the test with CAKI-1. Moreover, the GI50 in the test on SK-OV-3 is > 100 µM (inactive); with NCI-H460 it was 30.6 µM (inactive); in the test on HCT-15, 27.3 µM; with TK-10 it was > 100 µM (inactive); in the test on OVCAR-3, 23.3 µM (inactive); with HCC 2998 it was 32.1 µM (inactive). Besides, the GI50 in the test with DMS-273 was 54.5 µM (inactive); with OVCAR-8 it was 42.1 µM (inactive).
For `Nc1ncnc2c1ncn2C1OC(CSC(F)F)C(O)C1O` (configuration not stated), the GI50 in the test on NCI-H522 was 86.3 µM (inactive); in the test with SNB-75, > 100 µM (inactive); with OVCAR-4, > 100 µM (inactive); in the test with MOLT-4, > 100 µM (inactive); with HOP-92, > 100 µM (inactive); in the test on CAKI-1, > 100 µM (inactive). Moreover, the GI50 is > 100 µM (inactive) in the test on SK-OV-3; > 100 µM (inactive) with NCI-H460; above 100 µM with HCT-15; > 100 µM (inactive) in the test with TK-10; > 100 µM (inactive) in the test with OVCAR-3; > 100 µM (inactive) in the test with HCC 2998. Also, the GI50 with DMS-273, with OVCAR-8 and with HCT-116 was > 100 µM (inactive) each time.
As to `CC(=O)Nc1ccc(C(=O)NN2C(=O)C(Cl)C2c2ccc([N+](=O)[O-])cc2)cc1` (configuration not stated), the GI50 in the test on NCI-H522, in the test on SNB-75, in the test on OVCAR-4, with RXF 393, in the test with MOLT-4 and in the test with HOP-92 was > 100 µM (inactive) throughout. For the same compound, the GI50 with CAKI-1 is > 100 µM (inactive); in the test on SK-OV-3 it was > 100 µM (inactive); in the test with NCI-H460, > 100 µM (inactive); with HCT-15, above 100 µM; in the test on TK-10, > 100 µM (inactive); in the test on OVCAR-3, > 100 µM (inactive). The GI50 in the test with DMS-273, in the test with OVCAR-8 and with HCT-116 was > 100 µM (inactive) each time.
For `COc1ccc(CNc2cnc3cc(N)ccc3n2)cc1OC`, the GI50 in the test on NCI-H522, in the test on SNB-75, in the test on OVCAR-4, in the test on MOLT-4, with CAKI-1 and in the test on NCI-H460 was > 100 µM (inactive) in each case. Moreover, the GI50 in the test on HCT-15 is above 100 µM; in the test with TK-10, > 100 µM (inactive); in the test on OVCAR-3, > 100 µM (inactive); in the test with HCC 2998, > 100 µM (inactive); in the test with DMS-273, > 100 µM (inactive); with OVCAR-8 it was > 100 µM (inactive). Also, the GI50 in the test with HCT-116 was > 100 µM (inactive).
`Cc1cn(C2CC(CCCO)C(CO)O2)c(=O)[nH]c1=O` (configuration not stated): the GI50 in the test with NCI-H522, in the test on OVCAR-4, in the test on RXF 393, with CAKI-1, with SK-OV-3 and with NCI-H460 was > 100 µM (inactive) in each case. In addition, the GI50 is above 100 µM in the test with HCT-15; > 100 µM (inactive) in the test on TK-10; > 100 µM (inactive) in the test with OVCAR-3; > 100 µM (inactive) in the test on HCC 2998; > 100 µM (inactive) with DMS-273; > 100 µM (inactive) in the test with OVCAR-8. Also, in the test with HCT-116, the GI50 was > 100 µM (inactive).
For `Cc1c(C(=O)c2ccccc2C(=O)O)c2ccccc2n1C`, the GI50 in the test with SNB-75, in the test on OVCAR-4, in the test on RXF 393, in the test with MOLT-4, in the test on CAKI-1 and with SK-OV-3 was > 100 µM (inactive) in each case. For the same compound, the GI50 in the test on NCI-H460 was > 100 µM (inactive); in the test with HCT-15 it was above 100 µM; in the test with TK-10 it was > 100 µM (inactive); in the test with OVCAR-3 it was > 100 µM (inactive); in the test with HCC 2998, > 100 µM (inactive); with DMS-273, > 100 µM (inactive). The GI50 in the test with OVCAR-8 and in the test with HCT-116 was > 100 µM (inactive) throughout.
With `CCOC(=O)[C@H]1Nc2ccc(Cl)cc2[C@H]2CCC[C@@H]12`, the GI50 was 31.5 µM (inactive) with NCI-H522; 72.3 µM (inactive) with SNB-75; 56.9 µM (inactive) in the test with OVCAR-4; 17.9 µM (inactive) with RXF 393; > 100 µM (inactive) in the test on MOLT-4; 86.9 µM (inactive) in the test on CAKI-1. The GI50 was > 100 µM (inactive) in the test with NCI-H460; above 100 µM with HCT-15; > 100 µM (inactive) with TK-10; 61.4 µM (inactive) in the test with OVCAR-3; > 100 µM (inactive) in the test with HCC 2998; > 100 µM (inactive) in the test on DMS-273. For the same compound, the GI50 in the test on OVCAR-8 and in the test with HCT-116 was > 100 µM (inactive) in each case.
Turning to `CC(C)N(C(=O)C12C3C4C1C1C4(C#N)C3C12C(=O)O)C(C)C` (configuration not stated), the GI50 in the test with NCI-H522 is > 69.3 µM (inactive); in the test on SNB-75 it was > 100 µM (inactive); in the test with OVCAR-4 it was > 100 µM (inactive); in the test with MOLT-4, > 100 µM (inactive); in the test on HOP-92, > 100 µM (inactive); with CAKI-1, > 100 µM (inactive). For the same compound, the GI50 in the test with SK-OV-3 was > 100 µM (inactive); with NCI-H460 it was > 67.3 µM (inactive); with HCT-15, above 44.7 µM; in the test with TK-10, > 100 µM (inactive); with OVCAR-3 it was > 100 µM (inactive); with HCC 2998, > 100 µM (inactive). For the same compound, the results for the GI50 in the test with DMS-273, with OVCAR-8 and in the test on HCT-116 were > 100 µM (inactive), > 86.9 µM (inactive) and > 52.8 µM (inactive), respectively.
Consider `CN(C)CC/C(=N\Nc1c(F)c(F)c(F)c(F)c1F)c1ccccc1`, for which the GI50 with NCI-H522 is 14.3 µM (inactive); in the test on SNB-75, 3.35 µM (inactive); with OVCAR-4, 16.9 µM (inactive); in the test with RXF 393, 22 µM (inactive); with MOLT-4 it was 19.2 µM (inactive); in the test with SK-OV-3 it was 3.32 µM (inactive). Moreover, the GI50 was 28 µM (inactive) in the test on NCI-H460; 35.3 µM in the test on HCT-15; 62.7 µM (inactive) in the test with TK-10; > 10 µM (inactive) in the test on OVCAR-3; 29.2 µM (inactive) in the test with DMS-273; 93.3 µM (inactive) with OVCAR-8. Further, in the test on HCT-116, the GI50 was 86.9 µM (inactive).
Take `C[C@H]1[C@H](C)CC[C@]2(C(=O)O)CCC3(COC(=O)/C=C/c4ccc(O)cc4)C(=CCC4[C@@]5(C)CC[C@H](O)C(C)(C)C5CC[C@]43C)[C@H]12` (some centres not stated): the GI50 is 3.78 µM (inactive) in the test on NCI-H522; 10.2 µM (inactive) in the test with SNB-75; 5.96 µM (inactive) with OVCAR-4; 10.9 µM (inactive) in the test with RXF 393; 3.52 µM (inactive) with MOLT-4; 2.85 µM (inactive) with CAKI-1. The GI50 is 1.63 µM (inactive) in the test on SK-OV-3; 3.09 µM (inactive) with NCI-H460; 4.62 µM in the test with HCT-15; 10.5 µM (inactive) in the test with TK-10; 4.8 µM (inactive) in the test with OVCAR-3; 5.45 µM (inactive) in the test on HCC 2998. Besides, the results for the GI50 with DMS-273, in the test on OVCAR-8 and in the test on HCT-116 were 4.76 µM (inactive), 4.51 µM (inactive) and 3.62 µM (inactive), respectively.
Take `CC(=O)OC1C[C@H]2C(OC(=O)c3ccccc3)C3C4(OC(C)=O)COC4C[C@H](OC(C)=O)[C@@]3(C)C(OC(C)=O)[C@H](OC(C)=O)C(=C1C)C2(C)C` (some centres not stated): the GI50 is 20.4 µM (inactive) in the test on NCI-H522; 14.3 µM (inactive) with SNB-75; 36.7 µM (inactive) in the test with OVCAR-4; 16.2 µM (inactive) in the test with RXF 393; 20.1 µM (inactive) in the test on MOLT-4; 13.5 µM (inactive) with CAKI-1. The GI50 was 34.1 µM (inactive) in the test on SK-OV-3; 35.5 µM (inactive) in the test on NCI-H460; 47 µM in the test on HCT-15; 25.7 µM (inactive) in the test on TK-10; 64.7 µM (inactive) in the test on OVCAR-3; 24.9 µM (inactive) in the test on DMS-273. Besides, the GI50 was 41.2 µM (inactive) in the test on OVCAR-8 and 40 µM (inactive) in the test with HCT-116.
